What was measured:
Pten KO mice = experiment: 3-chamber test in Pten KO mice; format: in vivo
Protocol: As Pten KO mice, Ptenf/f_cre/cre KO mice or Ptenf/f_cre/++ Het mice (KD) were obtained by mating Pten floxed/floxed mice and CAMKII-cre mice. DMSO or athyriol was intraperitoneally injected at 5 or 10 mg/kg for 2 weeks from the age of mice of 6 weeks, and a behavioral test was performed in 7 days after administration. Pten floxed/floxed mice were used as littermates of the same age as a normal control group.
3-chamber test is a test to confirm sociability, social cognition, and social sexual preference, and it was tested by composing sessions 1 and 2. The experimental site was consisted of three chambers made of transparent acrylic walls with a small door and each chamber was length 50 cm×width 100 cm×height 50 cm. Through a cylindrical cage, the sense of smell and minimal contact of the test mice to the unfamiliar mouse were allowed. Prior to the test, the test mice were placed in an intermediate chamber and adapted for 5 minutes with both doors closed. The test was performed by dividing into sessions I and II. In the 3-chamber sociability measurement-1 session, an unfamiliar mouse met first was placed in a transparent box located at one end of the three rooms, and an empty transparent box of the same size was placed in the room located at the other side, and the target mouse was placed in the middle room, and then the time searching toward the counterpart within the social interaction zone was measured.
In the 3-chamber sociability measurement-2 session, an unfamiliar met first was placed in a transparent box located at one end of the three rooms, and the mouse met in the session 1 was placed in the same transparent box in the room located at the other side. […] Therefore, it could be confirmed that the sociability disorder occurring in the Pten KO mice was improved to the normal group level by athyriol administration.

[1] = target: T1, mTORC2 located in late endosome of dendritic spines (Rattus norvegicus, UniProt P42346); experiment: LocaTOR2 assay-immunofluorescent staining in primary cultured cerebral neurons (mGluR-dependent mTORC2 activation); format: cell-based; conditions: neurons pretreated with norathyriol; FIG. 11b
T1 construct: endogenous in cells; host or cells: primary cultured cerebral neurons from SD-rat E16 embryos, transduced by lentivirus only with mCherry-FRB-AKT2 and Rab7-FKBP
Excerpt: By combining Loca-TOR2 assay and immunofluorescence staining, changes in mTORC2 activity located in the late endosome during the induction process of long term depression (LTD) occurring in dendritic spines of primarily cultured cerebral neurons were investigated, and the inhibitory effect of norathyriol on these changes was investigated.
Specifically, mCherry-FRB-AKT2 and Rab7-FKBP were introduced using a lentiviral vector on the primarily cultured cerebral neuron on the DIV5 day, and AP21967 was treated on the DIV17 day to induce binding of FRB and FKBP, and thereby, mCherry-FRB-AKT2 was located in the late endosome. After that, DHPG, which is an mGluR agonist inducing long-term depression, was treated. […] In addition, by measuring Ser473 phosphorylation staining of mCherry-FRB-AKT2 overlapped with PSD-95 staining, which is a protein located in dendritic spines, by immunofluorescent staining, changes in mTORC2 activity located in the late endosome in the dendritic spines can be investigated. After staining using a phospho-Ser473 AKT antibody by immunofluorescent staining, the degree of AKT Ser473 phosphorylation was quantified by counting the number of each fluorescent puncta larger than 0.4 μm or more in size in the dendrites (green). In addition, the dendritic spines were observed by staining with PSD95 antibody (yellow), and the location of mCherry-FRB-AKT2 was investigated by observing mCherry fluorescence (cherry color).
SD-rat gestational age 16-day mice (Orient Bio) were purchased and the mice were anesthetized with CO2 and then embryos were taken out. Until the forebrain was isolated and the meninges were removed, it was performed by the same method as the hippocampal culture, and when the cerebrum was isolated, the dorsal cortex or ventral cortex was cut with a bended syringe needle, and it was collected in new HBSS. The tissue isolated and collected was transferred to a 15 ml tube with a Pasteur pipette, and then in order to remove the remaining meninges and blood vessels, and the like, 2 ml HBSS and 0.25% trypsin of 2 ml were added, and it was reacted in a 37° C. shaker for 10-15 minutes. The cells were settled and the supernatant was removed leaving 1-2 ml, and then trypsin was inactivated by adding DMEM comprising the equal amount of 20% FBS. After centrifugation at 700 rpm for 15 minutes, the supernatant was discarded all and the collected tissue was released, and then Neurobasal culture medium (+glutamate) of 2 ml was added, and titrated with a pipette, and the cells were isolated by changing to a pipette with a narrow end. […] The number of cells was measured with a hemocytometer, and then the cells were seeded in a coated culture dish. […]

Arc protein expression = experiment: mGluR-dependent Arc protein expression in cerebral neurons; format: cell-based
Protocol: When mGluR is activated in dendritic spines of cerebral neurons, Arc protein is synthesized, and the Arc protein promotes endocytosis of an AMPA receptor to form LTD.
Specifically, DHPG was treated to cerebral neurons, which were obtained by primary culture of white mouse embryo E16 cerebral regions and differentiated for […] (DIV21), for 5 minutes or 10 minutes to activate mGluR. As an Arc antibody, Arc protein (green) and PSD95 (red), which is a marker antibody of postsynaptic density of a synapse, were under
After double immunofluorescent staining of Arc protein with an Arc antidody (green) and PSD95, a marker of postsynaptic density of synapse, with an PSD95 antibody (red), Arc expression in dendritic spines was quantified as the number of Arc+PSD95 double stained puncta per 20 μm neurite length by confocal scanning microscopic scanning.

Structure (SMILES): COc1cc(O)c2c(=O)c3cc(O)c(O)cc3oc2c1 [athyriol, 1,6,7-Trihydroxy-3-methoxy-9H-xanthen-9-on]
- increase of time of searching the unfamiliar mouse over normal control group, session 2 (Pten KO mice; 10 mg/kg, session 2): 14%
- time searching the unfamiliar mouse, session 1 (Pten KO mice; 3-chamber sociability measurement-1 session, FIG. 4): recovered to the normal control group level in a concentration-dependent manner
- time of searching the unfamiliar mouse, session 2 (Pten KO mice; 5 or 10 mg/kg, 3-chamber sociability measurement-2 session): increased in a dose-dependent manner

Structure (SMILES): O=c1c2cc(O)c(O)cc2oc2cc(O)cc(O)c12 [norathyriol, 1,3,6,7-tetrahydroxy-9H-xanthen-9-one]
- AKT-Ser473 phosphorylation induced by DHPG [1]: measured similarly to the control group level
- increase of Arc protein synthesis (immunoblot of cell lysate) (Arc protein expression; DHPG-induced, FIG. 12b): inhibited in a dose-dependent manner
- Arc synthesis in dendritic spines (immunofluorescent staining) (Arc protein expression; pretreated for 2 hours before treating DHPG, FIG. 12a): the increase of Arc synthesis by DHPG was not found

Source: patent publication US20240366555A1, “SELECTIVE MTORC2 INHIBITOR AND USES THEREOF” (ALIAD BIOPHARMA, priority 2021, published 2024)
